# How the values were obtained:
# PKD3 = molecular target: T1, PKD3 (Homo sapiens, UniProt O94806); test: Kinobeads competition binding, L-363 cell lysate; design: endogenous in cells; host or cells: L-363 (treated with MG132 for three hours before harvest); conditions: 10 μM free compound, L-363 lysate
# T1 sequence (O94806 1-890): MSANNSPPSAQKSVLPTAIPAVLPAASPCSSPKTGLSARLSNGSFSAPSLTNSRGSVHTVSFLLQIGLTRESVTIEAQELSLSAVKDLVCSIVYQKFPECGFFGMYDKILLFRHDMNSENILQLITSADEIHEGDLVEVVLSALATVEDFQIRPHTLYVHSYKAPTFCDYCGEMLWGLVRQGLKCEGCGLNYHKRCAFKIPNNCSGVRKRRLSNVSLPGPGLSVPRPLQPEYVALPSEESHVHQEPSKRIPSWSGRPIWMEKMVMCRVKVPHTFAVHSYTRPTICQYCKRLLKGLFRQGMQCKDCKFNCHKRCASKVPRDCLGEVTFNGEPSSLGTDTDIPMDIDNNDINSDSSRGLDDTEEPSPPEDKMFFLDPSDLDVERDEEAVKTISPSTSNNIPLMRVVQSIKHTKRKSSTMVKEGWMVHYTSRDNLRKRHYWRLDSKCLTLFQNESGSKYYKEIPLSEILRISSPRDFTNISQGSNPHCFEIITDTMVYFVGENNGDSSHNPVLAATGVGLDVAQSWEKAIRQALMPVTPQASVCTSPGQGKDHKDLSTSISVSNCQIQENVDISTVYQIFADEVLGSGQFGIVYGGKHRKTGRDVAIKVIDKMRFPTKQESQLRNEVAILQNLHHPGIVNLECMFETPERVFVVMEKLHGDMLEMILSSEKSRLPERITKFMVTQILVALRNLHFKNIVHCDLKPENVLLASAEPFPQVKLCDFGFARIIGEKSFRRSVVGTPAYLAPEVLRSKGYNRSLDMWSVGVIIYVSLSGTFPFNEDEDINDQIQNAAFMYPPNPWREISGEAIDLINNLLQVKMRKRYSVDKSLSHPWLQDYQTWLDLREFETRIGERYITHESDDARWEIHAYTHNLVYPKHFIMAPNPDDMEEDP
# Description: (§1) To one aliquot of cell lysate 10 μM of the free compound (FIG. 3, CZC31326) was added and allowed to bind to proteins in the lysate. Then the affinity matrix with the immobilized compound was added to capture proteins that were not interacting with the previously added free compound. Beads were separated from the lysate and bead bound proteins were eluted in SDS sample buffer and subsequently separated by SDS-Polyacrylamide gel electrophoresis (FIG. 8). Suitable gel bands were cut out and subjected to in-gel proteolytic digestion with trypsin. The second lysate aliquot was processed identically, however no free compound was added (DMSO solvent control). Peptides originating from samples 1 and 2 were labeled with iTRAQ reagents (iTRAQ 114 and iTRAQ 117) and the combined samples were analyzed with a nano-flow liquid chromatography system coupled online to a tandem mass spectrometer (LC-MS/MS) experiment followed by iTRAQ reporter ion quantification in the MS/MS spectra as described in Example 2.
# (§2) For this experiment the human plasma cell leukaemia line L-363 was used (German Collection of Microorganisms and Cell Cultures, DSMZ number ACC49, Braunschweig, Germany). Cells were treated for three hours with 20 μM of the proteasome inhibitor MG132 (Z-Leu-Leu-Leu-al, Sigma C2211) prior to cell harvesting.
# PIP5K2A = molecular target: T2, PIP5K2A (Homo sapiens, UniProt P48426); test: Kinobeads competition binding, L-363 cell lysate; design: endogenous in cells; host or cells: L-363 (treated with MG132 for three hours before harvest); conditions: 10 μM free compound, L-363 lysate
# T2 sequence (P48426 1-406): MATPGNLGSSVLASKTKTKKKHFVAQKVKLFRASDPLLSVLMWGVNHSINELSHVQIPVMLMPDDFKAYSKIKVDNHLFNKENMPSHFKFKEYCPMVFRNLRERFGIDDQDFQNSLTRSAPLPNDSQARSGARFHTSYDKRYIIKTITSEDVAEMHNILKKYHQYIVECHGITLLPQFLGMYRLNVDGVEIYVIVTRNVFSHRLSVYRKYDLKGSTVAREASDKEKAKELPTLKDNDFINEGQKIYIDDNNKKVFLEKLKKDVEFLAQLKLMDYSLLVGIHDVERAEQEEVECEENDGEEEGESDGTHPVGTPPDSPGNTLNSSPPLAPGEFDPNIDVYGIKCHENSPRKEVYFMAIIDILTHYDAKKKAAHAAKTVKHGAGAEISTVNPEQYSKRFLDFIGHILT
# Description: as §1, §2
smiles,measurement,setting,value
"CS(=O)(=O)Nc1ccccc1Nc1nc(Nc2cccc(OCCN)c2)ncc1Cl [CZC31326, N-(2-(2-(3-(2-aminoethoxy)phenylamino)-5-chloropyrimidin-4-ylamino)phenyl)methanesulfonamide]",inhibition at 10 µM,PKD3,98.1%
same,inhibition at 10 µM,PIP5K2A,96.4%

# Reference: patent publication US20120270237A9, “METHODS FOR THE IDENTIFICATION OF KINASE INTERACTING MOLECULES AND FOR THE PURIFICATION OF KINASE PROTEINS” (Cellzone AG, priority 2009, published 2012)
